Structures can show the parent of a compound that is named as a salt.
Legend:
[1] = target: T1, HiBit-BRM fusion protein (Homo sapiens, UniProt P51531); assay: HiBiT-BRM cell-based degradation assay (Nano-Glo HiBiT Lytic Detection, 24 h); conditions: HeLa cells expressing HiBiT-BRM; for DC50: read-out: BRM HiBit Degradation IC50; for BRM HiBit Degradation Maximum measured: top dose 30 μM
T1 construct: expressed in transfected cells
Outline: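 HeLa cells stably expressing HiBiT-BRM were dosed with compounds (10-point 3-fold dilutions, 30 μM final top dose, duplicate) for 24 h. HiBiT signal was read by lytic LgBiT complementation luminescence. Percent degradation was normalised to DMSO (high control) and 2 μM of a reference BRM/BRG1 degrader (low control).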

[2] = target: T2, HiBit-BRG1 fusion protein (Homo sapiens, UniProt P51532); assay: HiBiT-BRG1 cell-based degradation assay (Nano-Glo HiBiT Lytic Detection, 24 h); conditions: HeLa cells expressing HiBit-BRG1 and LgBit; for DC50: read-out: BRG1 HiBit Degradation IC50; for Dmax: HeLa, top dose 30 μM, read-out: BRG1 HiBit Degradation Maximum measured
T2 construct: expressed in transfected cells
Outline: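 Stable HeLa line expressing HiBiT-BRG1 and LgBiT, seeded at 5000 cells/well; luminescence read after lytic Nano-Glo HiBiT reagent and 10 min shaking at RT. % degradation normalised between DMSO (high control) and 2 μM reference BRM/BRG1 degrader (low control).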

T2 sequence (P51532 whole entry, the tested form may be a part): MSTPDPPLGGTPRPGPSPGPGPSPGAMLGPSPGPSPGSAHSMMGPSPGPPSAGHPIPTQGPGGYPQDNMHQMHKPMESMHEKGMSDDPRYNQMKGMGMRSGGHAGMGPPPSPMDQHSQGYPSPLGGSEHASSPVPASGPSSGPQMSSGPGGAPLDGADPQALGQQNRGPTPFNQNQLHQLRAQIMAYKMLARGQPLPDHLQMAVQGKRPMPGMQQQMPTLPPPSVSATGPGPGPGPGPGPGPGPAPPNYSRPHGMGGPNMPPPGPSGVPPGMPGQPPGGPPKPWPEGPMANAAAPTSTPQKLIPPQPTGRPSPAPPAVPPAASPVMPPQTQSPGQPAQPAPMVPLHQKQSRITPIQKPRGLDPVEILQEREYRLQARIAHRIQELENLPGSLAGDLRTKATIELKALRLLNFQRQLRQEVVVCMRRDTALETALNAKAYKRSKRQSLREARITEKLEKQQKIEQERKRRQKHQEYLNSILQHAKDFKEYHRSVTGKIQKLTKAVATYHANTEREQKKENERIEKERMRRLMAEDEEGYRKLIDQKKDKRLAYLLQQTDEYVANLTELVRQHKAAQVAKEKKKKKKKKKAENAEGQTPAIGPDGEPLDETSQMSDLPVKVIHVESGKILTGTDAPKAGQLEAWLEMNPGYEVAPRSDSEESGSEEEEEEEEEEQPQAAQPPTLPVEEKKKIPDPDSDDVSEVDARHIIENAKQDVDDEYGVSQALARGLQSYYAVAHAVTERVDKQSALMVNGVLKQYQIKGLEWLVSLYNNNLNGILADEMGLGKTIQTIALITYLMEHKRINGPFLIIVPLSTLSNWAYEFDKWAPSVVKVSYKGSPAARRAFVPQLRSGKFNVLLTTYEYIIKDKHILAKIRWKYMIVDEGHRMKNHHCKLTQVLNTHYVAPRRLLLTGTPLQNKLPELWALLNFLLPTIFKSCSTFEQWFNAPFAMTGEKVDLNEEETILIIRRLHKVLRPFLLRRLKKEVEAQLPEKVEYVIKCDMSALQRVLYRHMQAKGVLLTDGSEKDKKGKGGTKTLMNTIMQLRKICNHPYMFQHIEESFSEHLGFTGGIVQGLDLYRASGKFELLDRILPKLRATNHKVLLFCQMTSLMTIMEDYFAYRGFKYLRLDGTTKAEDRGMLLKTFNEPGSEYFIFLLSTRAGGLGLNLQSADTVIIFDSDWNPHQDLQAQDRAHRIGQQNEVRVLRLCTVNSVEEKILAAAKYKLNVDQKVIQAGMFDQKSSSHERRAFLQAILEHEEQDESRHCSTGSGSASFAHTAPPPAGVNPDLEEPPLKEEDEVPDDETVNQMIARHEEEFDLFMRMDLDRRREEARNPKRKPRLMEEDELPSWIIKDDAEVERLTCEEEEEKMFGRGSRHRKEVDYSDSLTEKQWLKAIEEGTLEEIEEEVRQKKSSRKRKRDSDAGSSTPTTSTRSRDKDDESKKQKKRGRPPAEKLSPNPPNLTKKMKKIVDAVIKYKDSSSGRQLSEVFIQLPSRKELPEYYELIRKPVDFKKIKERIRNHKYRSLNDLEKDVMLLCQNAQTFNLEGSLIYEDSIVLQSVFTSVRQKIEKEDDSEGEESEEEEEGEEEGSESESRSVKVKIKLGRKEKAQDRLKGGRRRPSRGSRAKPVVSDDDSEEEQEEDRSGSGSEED
T1 sequence (P51531 whole entry, the tested form may be a part): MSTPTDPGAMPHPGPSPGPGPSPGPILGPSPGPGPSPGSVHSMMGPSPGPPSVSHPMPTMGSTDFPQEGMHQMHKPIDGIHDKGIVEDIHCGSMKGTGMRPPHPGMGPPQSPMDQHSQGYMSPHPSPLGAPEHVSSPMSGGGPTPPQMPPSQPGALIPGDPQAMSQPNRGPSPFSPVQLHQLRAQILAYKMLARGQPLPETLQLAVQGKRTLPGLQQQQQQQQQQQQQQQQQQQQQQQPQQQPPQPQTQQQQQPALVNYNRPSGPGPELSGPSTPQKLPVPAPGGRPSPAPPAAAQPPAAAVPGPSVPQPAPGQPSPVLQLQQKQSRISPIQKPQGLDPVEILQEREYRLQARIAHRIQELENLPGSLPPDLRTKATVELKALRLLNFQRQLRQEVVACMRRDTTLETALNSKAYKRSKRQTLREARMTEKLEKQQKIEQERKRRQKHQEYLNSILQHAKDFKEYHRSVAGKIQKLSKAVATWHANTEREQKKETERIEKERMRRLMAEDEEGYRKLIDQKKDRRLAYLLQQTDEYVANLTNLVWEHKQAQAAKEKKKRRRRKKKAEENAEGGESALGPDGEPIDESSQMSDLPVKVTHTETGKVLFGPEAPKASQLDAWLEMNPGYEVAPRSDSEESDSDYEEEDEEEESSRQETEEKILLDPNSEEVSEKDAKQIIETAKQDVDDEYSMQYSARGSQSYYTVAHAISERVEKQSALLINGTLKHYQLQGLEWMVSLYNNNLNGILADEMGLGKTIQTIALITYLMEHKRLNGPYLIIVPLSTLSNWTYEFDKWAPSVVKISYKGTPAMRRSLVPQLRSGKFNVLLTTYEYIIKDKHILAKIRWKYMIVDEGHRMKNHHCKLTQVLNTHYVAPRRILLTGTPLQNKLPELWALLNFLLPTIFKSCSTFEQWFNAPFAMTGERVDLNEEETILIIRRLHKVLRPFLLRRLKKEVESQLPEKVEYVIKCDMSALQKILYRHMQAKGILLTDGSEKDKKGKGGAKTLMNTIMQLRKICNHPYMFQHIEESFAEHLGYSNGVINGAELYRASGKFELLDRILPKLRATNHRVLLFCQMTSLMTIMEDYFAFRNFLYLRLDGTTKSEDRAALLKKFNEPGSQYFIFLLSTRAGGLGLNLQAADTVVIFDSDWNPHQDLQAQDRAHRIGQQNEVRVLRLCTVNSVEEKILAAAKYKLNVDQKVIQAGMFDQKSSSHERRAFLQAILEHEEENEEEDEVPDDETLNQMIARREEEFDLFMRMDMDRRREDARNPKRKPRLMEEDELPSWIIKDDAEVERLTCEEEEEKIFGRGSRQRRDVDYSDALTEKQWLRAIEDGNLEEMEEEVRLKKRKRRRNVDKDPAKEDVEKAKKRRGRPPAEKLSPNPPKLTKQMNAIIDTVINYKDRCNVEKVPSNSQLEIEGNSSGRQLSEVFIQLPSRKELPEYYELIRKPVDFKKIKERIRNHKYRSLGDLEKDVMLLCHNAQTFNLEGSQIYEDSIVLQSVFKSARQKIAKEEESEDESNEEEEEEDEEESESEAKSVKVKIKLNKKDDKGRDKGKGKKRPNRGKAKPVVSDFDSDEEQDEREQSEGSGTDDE

SMILES	DC50 [1] [µM]	BRM HiBit Degradation Maximum measured [1]	DC50 [2] [µM]	Dmax [2] [%]
CS(=O)(=O)n1ccc(C(=O)NCC(=O)Nc2nc(-c3cccc(-c4ccnc(C5(C(=O)N6CCN(CC7CCN(c8ccc9c(c8)C(=O)N(C8CCC(=O)NC8=O)C9=O)CC7)CC6)CC5)c4)c3)cs2)c1 (centres unmarked) [Compound 134, N-[4-[3-(2-[1-[4-([1-[2-(2,6-dioxopiperidin-3-yl)-1,3-dioxoisoindol-5-yl]piperidin-4-yl]methyl)piperazine-1-carbonyl]cyclopropyl]pyridin-4-yl)phenyl]-1,3-thiazol-2-yl]-2-[(1-methanesulfonylpyrrol-3-yl)formamido]acetamide]	0.1 to 1	A (‘A’ = Maximum degradation >75%)	< 0.1	> 75
CS(=O)(=O)n1ccc(C(=O)NCC(=O)Nc2nc(-c3cccc(-c4ccnc(C5(C(=O)N6CCN(CCCOc7ccc8c(c7)C(=O)N(C7CCC(=O)NC7=O)C8=O)CC6)CC5)c4)c3)cs2)c1 (centres unmarked) [Compound 135, N-[4-[3-(2-[1-[4-(3-[[2-(2,6-dioxopiperidin-3-yl)-1,3-dioxoisoindol-5-yl]oxy]propyl)piperazine-1-carbonyl]cyclopropyl]pyridin-4-yl)phenyl]-1,3-thiazol-2-yl]-2-[(1-methanesulfonylpyrrol-3-yl)formamido]acetamide]	0.1 to 1	B (‘B’ = Maximum degradation ≥50% and ≤75%)	0.1 to 1	> 75
Cc1ncsc1-c1ccc(CNC(=O)[C@@H]2C[C@@H](O)CN2C(=O)[C@@H](NC(=O)CN2CCC(C(=O)NCc3cccc(-c4cccc(-c5csc(NC(=O)CNC(=O)c6ccn(S(C)(=O)=O)c6)n5)c4)c3)CC2)C(C)(C)C)cc1 [Compound 138, 1-([[(2S)-1-[(2S,4R)-4-hydroxy-2-([[4-(4-methyl-1,3-thiazol-5-yl)phenyl]methyl]carbamoyl)pyrrolidin-1-yl]-3,3-dimethyl-1-oxobutan-2-yl]carbamoyl]methyl)-N-[[3-(2-[2-[(1-methanesulfonylpyrrol-3-yl)formamido]acetamido]-1,3-thiazol-4-yl)-[1,1-biphenyl]-3-yl]methyl]piperidine-4-carboxamide]	1 to 10	B (‘B’ = Maximum degradation ≥50% and ≤75%)	1 to 10	50 to 75
CS(=O)(=O)n1ccc(C(=O)NCC(=O)Nc2nc(-c3cccc(-c4ccnc(C5(C(=O)N6CC(Oc7ccc8c(c7)C(=O)N(C7CCC(=O)NC7=O)C8=O)C6)CC5)c4)c3)cs2)c1 (centres unmarked) [Compound 141, N-[4-(3-[2-[1-(3-[[2-(2,6-dioxopiperidin-3-yl)-1,3-dioxoisoindol-5-yl]oxy]azetidine-1-carbonyl)cyclopropyl]pyridin-4-yl]phenyl)-1,3-thiazol-2-yl]-2-[(1-methanesulfonylpyrrol-3-yl)formamido]acetamide]	0.1 to 1	B (‘B’ = Maximum degradation ≥50% and ≤75%)	> 10	< 50
CS(=O)(=O)n1ccc(C(=O)NCC(=O)Nc2nc(C3CCCN(C(=O)CCCCCCCCCCNc4ccc5c(c4)C(=O)N(C4CCC(=O)NC4=O)C5=O)C3)cs2)c1 (centres unmarked) [Compound 143, N-{4-[1-(11-{[2-(2,6-dioxopiperidin-3-yl)-1,3-dioxo-2,3-dihydro-1H-isoindol-5-yl]amino}undecanoyl)piperidin-3-yl]-1,3-thiazol-2-yl}-2-[(1-methanesulfonyl-1H-pyrrol-3-yl)formamido]acetamide]	> 10	C (‘C’ = Maximum degradation <50%)	> 10	< 50
CS(=O)(=O)n1ccc(C(=O)NCC(=O)Nc2nc(C3CCCN(C(=O)CCOCCOCCOc4ccc5c(c4)C(=O)N(C4CCC(=O)NC4=O)C5=O)C3)cs2)c1 (centres unmarked) [Compound 144, N-[4-(1-{3-[2-(2-{[2-(2,6-dioxopiperidin-3-yl)-1,3-dioxo-2,3-dihydro-1H-isoindol-5-yl]oxy}ethoxy)ethoxy]propanoyl}piperidin-3-yl)-1,3-thiazol-2-yl]-2-[(1-methanesulfonyl-1H-pyrrol-3-yl)formamido]acetamide]	> 10	C (‘C’ = Maximum degradation <50%)	> 10	< 50
CS(=O)(=O)n1ccc(C(=O)NCC(=O)Nc2nc(C3CCCN(C(=O)C4CCN(CCOc5ccc6c(c5)C(=O)N(C5CCC(=O)NC5=O)C6=O)CC4)C3)cs2)c1 (centres unmarked) [Compound 145, N-(4-{1-[1-(2-{[2-(2,6-dioxopiperidin-3-yl)-1,3-dioxo-2,3-dihydro-1H-isoindol-5-yl]oxy}ethyl)piperidine-4-carbonyl]piperidin-3-yl}-1,3-thiazol-2-yl)-2-[(1-methanesulfonyl-1H-pyrrol-3-yl)formamido]acetamide formate]	> 10	C (‘C’ = Maximum degradation <50%)	> 10	< 50
CS(=O)(=O)n1ccc(C(=O)NCC(=O)Nc2nc(C3CCCN(C(=O)CCN4CCN(c5ccc6c(c5)C(=O)N(C5CCC(=O)NC5=O)C6=O)CC4)C3)cs2)c1 (centres unmarked) [Compound 146, N-{4-[1-(3-{4-[2-(2,6-dioxopiperidin-3-yl)-1,3-dioxo-2,3-dihydro-1H-isoindol-5-yl]piperazin-1-yl}propanoyl)piperidin-3-yl]-1,3-thiazol-2-yl}-2-[(1-methanesulfonyl-1H-pyrrol-3-yl)formamido]acetamide formate]	> 10	C (‘C’ = Maximum degradation <50%)	> 10	< 50
CS(=O)(=O)n1ccc(C(=O)NCC(=O)Nc2nc(C3CCCN(C(=O)CCCCOc4cccc5c4C(=O)N(C4CCC(=O)NC4=O)C5=O)C3)cs2)c1 (centres unmarked) [Compound 147, N-{4-[1-(5-{[2-(2,6-dioxopiperidin-3-yl)-1,3-dioxo-2,3-dihydro-1H-isoindol-4-yl]oxy}pentanoyl)piperidin-3-yl]-1,3-thiazol-2-yl}-2-[(1-methanesulfonyl-1H-pyrrol-3-yl)formamido]acetamide]	> 10	C (‘C’ = Maximum degradation <50%)	> 10	< 50
CS(=O)(=O)n1ccc(C(=O)NCC(=O)Nc2nc(C3CCCN(C(=O)CCCCCCCOc4cccc5c4C(=O)N(C4CCC(=O)NC4=O)C5=O)C3)cs2)c1 (centres unmarked) [Compound 148, N-{4-[1-(8-{[2-(2,6-dioxopiperidin-3-yl)-1,3-dioxo-2,3-dihydro-1H-isoindol-4-yl]oxy}octanoyl)piperidin-3-yl]-1,3-thiazol-2-yl}-2-[(1-methanesulfonyl-1H-pyrrol-3-yl)formamido]acetamide]	> 10	C (‘C’ = Maximum degradation <50%)	> 10	< 50

Further lines, results first:

DC50 [1] [µM]	BRM HiBit Degradation Maximum measured [1]	DC50 [2] [µM]	Dmax [2] [%]	SMILES
> 10	C (‘C’ = Maximum degradation <50%)	> 10	< 50	CS(=O)(=O)n1ccc(C(=O)NCC(=O)Nc2nc(-c3cccc(-c4ccnc(C5(C(=O)N6CC(CCOc7cccc8c7C(=O)N(C7CCC(=O)NC7=O)C8=O)C6)CC5)c4)c3)cs2)c1 (centres unmarked) [Compound 136, N-[4-[3-(2-[1-[3-(2-[[2-(2,6-dioxopiperidin-3-yl)-1,3-dioxoisoindol-4-yl]oxy]ethyl)azetidine-1-carbonyl]cyclopropyl]pyridin-4-yl)phenyl]-1,3-thiazol-2-yl]-2-[(1-methanesulfonylpyrrol-3-yl)formamido]acetamide]
> 10	C (‘C’ = Maximum degradation <50%)	> 10	< 50	Cc1ncsc1-c1ccc(CNC(=O)[C@@H]2C[C@@H](O)CN2C(=O)[C@@H](NC(=O)C2CC3(CC(C(=O)NCc4cccc(-c5cccc(-c6csc(NC(=O)CNC(=O)c7ccn(S(C)(=O)=O)c7)n6)c5)c4)C3)C2)C(C)(C)C)cc1 (stereo partly drawn) [Compound 137, N2-[(2S)-1-[(2S,4R)-4-hydroxy-2-([[4-(4-methyl-1,3-thiazol-5-yl)phenyl]methyl]carbamoyl)pyrrolidin-1-yl]-3,3-dimethyl-1-oxobutan-2-yl]-N6-[[3′-(2-[2-[(1-methanesulfonylpyrrol-3-yl)formamido]acetamido]-1,3-thiazol-4-yl)-[1,1′-biphenyl]-3-yl]methyl]spiro[3.3]heptane-2,6-dicarboxamide]
0.1 to 1	A (‘A’ = Maximum degradation >75%)	0.1 to 1	> 75	CS(=O)(=O)n1ccc(C(=O)NCC(=O)Nc2nc(-c3cccc(-c4ccnc(C5(C(=O)NC6CCN(CCCCOc7ccc8c(c7)C(=O)N(C7CCC(=O)NC7=O)C8=O)CC6)CC5)c4)c3)cs2)c1 (centres unmarked) [Compound 140, N-[1-(4-[[2-(2,6-dioxopiperidin-3-yl)-1,3-dioxoisoindol-5-yl]oxy]butyl)piperidin-4-yl]-1-[4-[3-(2-[2-[(1-methanesulfonylpyrrol-3-yl)formamido]acetamido]-1,3-thiazol-4-yl)phenyl]pyridin-2-yl]cyclopropane-1-carboxamide]
> 10	C (‘C’ = Maximum degradation <50%)	> 10	< 50	Cc1ncsc1-c1ccc(CNC(=O)[C@@H]2C[C@@H](O)CN2C(=O)[C@@H](NC(=O)CCCCCCC(=O)NCc2cc(-c3cccc(-c4csc(NC(=O)CNC(=O)c5ccn(S(C)(=O)=O)c5)n4)c3)ccn2)C(C)(C)C)cc1 [Compound 142]
